Laboratory results reported in patent publication US20150126465A1, “PROCESS FOR PRODUCING DERIVATIVES OF PYROSTEGIA VENUSTA, DERIVATIVES OF PYROSTEGIA VENUSTA, PHARMACEUTICAL COMPOSITIONS AND ITS USES” (priority 2011, published 2015).
Values after ≈ are worked out from the molar mass of the structure shown. Read-outs that look alike come from different tables or passages of the source.

How the values were obtained:
Type in all cases: cell-based
[1] = tested on: Candida albicans ATCC 10231; experiment: MIC/CFM by microdilution (CLSI M27-A2); conditions: Candida albicans, ATCC10231; for MIC: read-out: MIC
C. Albicans USP 2 = experiment: MIC/CFM against Candida sp. strains
Candida krusei ATCC 6258 = experiment: MIC/CFM by microdilution (CLSI M27-A2); conditions: Pichia kudriavzevii, ATCC6258, read-out: MIC
[2] = tested on: Candida parapsilosis USP 1933; experiment: MIC/CFM by microdilution (CLSI M27-A2); conditions: Lodderomyces parapsilosis, USP1933; for MIC: read-out: MIC
[3] = tested on: Phomopsis longicolla (soy isolate); experiment: MIC by microdilution, filamentous fungi (CLSI M38-A); conditions: Diaporthe longicolla, 168 h; Table 13, Phomopsis longicolla- soy, 7 days, 28° C.; read-out: MIC
Method: (§1) Pure substances termed P1 and P2 previously dissolved in 20% DMSO, were diluted in RPMI medium, with final concentrations of 96 μg.mL-1. […] Cultures of filamentous fungi described below were inoculated in Agar-Batata Dextrose medium and inoculated for 7 days, at 28° C. Colonies of cultures inoculated for 7 days in an oven at 28° C. were shrouded with 0.85% saline solution, scraped and then transferred to conical tubes. After resting for 5 minutes, the supernatant was transferred to new conical tubes for subsequent quantification in spectrophotometer, at 530 nm, with the transmittance adjustment of 80-82% for A. niger and 70% for other microorganisms. After adjustment, there was a 1:50 dilution in RPM. The determination of Minimum Inhibitory Concentration was performed after 7 days, at 28° C. After the incubation period, aliquots of 96-well plates were transferred to Petri plates with Potato Dextrose Agar, to determine the Minimum Fungicidal Concentration. Plates were inoculated for more 7 days, at 28° C.

[4] = tested on: Trichophyton menthagrophyton ATCC 9533; experiment: as above; conditions: ATCC9533, 168 h; Table 13, Trichophyton menthagrophyton ATCC 9533, 7 days, 28° C.; read-out: MIC
Method: as §1

[5] = tested on: Microsporum canis ATCC 32903; experiment: as above; conditions: ATCC32903, 168 h; Table 13, Microsporum canis ATCC 32903, 7 days, 28° C.; read-out: MIC
Method: as §1

Candida albicans USP 1 = experiment: MIC/CFM by microdilution (CLSI M27-A2); conditions: Candida albicans, USP1; for MIC: read-out: MIC
Method: (§2) Pure substances termed P1 and P2 previously dissolved in 20% DMSO, were diluted in RPMI medium, with final concentrations of 96 μg.mL-1. […] The same was also tested individually, diluted in RPMI medium, with initial concentration of 1 μL.mL-1. […] Cultures of Candida sp. were prepared and standardized in […] saline solution at 0.85%. For inoculums standardization, a spectrophotometer equipment was used, with wavelength at 530 nm and absorbance adjustment between 0.130 and 0.150, having as white the saline solution free of inoculum or any other contaminant, corresponding to concentrations of 10^6 CFU/mL. In this condition the inoculum “mother” was diluted 50 times and from this inoculum “child” the dilution was performed 20 times to obtain a standard inoculum in 10^3 cells per well. […] To aid in the growth view, were added to the wells dye 50 μL 2,3,5-triphenyltetrazolium chloride (TTC) at 5 mg.mL “1, being performed the readings after 4 hours of incubation. Prior to the addition of dye, aliquots of 96-well plate were transferred to Petri with Agar-Sabouraud Dextrose to determine the Minimum Fungicidal Concentration. Plates were incubated for 24 hours at 35° C.

[6] = tested on: Candida albicans OF-M3-20; experiment: MIC/CFM by microdilution (CLSI M27-A2); conditions: Candida albicans, OFM320; for MIC: read-out: MIC
Method: as §2

[7] = tested on: Candida albicans OF-M7-19; experiment: MIC/CFM by microdilution (CLSI M27-A2); conditions: Candida albicans, OFM719; for MIC: read-out: MIC
Method: as §2

[8] = tested on: Candida parapsilosis ATCC 22019; experiment: MIC/CFM by microdilution (CLSI M27-A2); conditions: Lodderomyces parapsilosis, ATCC22019; for MIC: read-out: MIC
Candida glabrata ATCC = experiment: MIC/CFM against Candida sp. strains; conditions: Nakaseomyces glabratus, Table 14, Candida glabrata ATCC
[9] = tested on: Candida tropicalis USP B3; experiment: MIC by microdilution (CLSI M27-A2); conditions: Candida tropicalis, USPB3; Table 14, C. Tropicalis UPS B3; read-out: MIC
[10] = tested on: Candida albicans USP 1565; experiment: MIC by microdilution (CLSI M27-A2); conditions: Candida albicans, USP1565; Table 12, C. albicans USP 1565, 48 h, 35° C.; read-out: MIC
[11] = tested on: Candida tropicalis USP 1658; experiment: MIC by microdilution (CLSI M27-A2); conditions: Candida tropicalis, USP1658; Table 12, C. tropicalis USP 1658, 48 h, 35° C.; read-out: MIC
[12] = tested on: Candida guilhermondii USP; experiment: MIC/CFM by microdilution (CLSI M27-A2); conditions: for MIC: read-out: MIC

MIC ([1]; Table 12, C. albicans ATCC 10231, 48 h, 35° C.): 4 µg/mL (≈ 9.61 µM)
MIC ([1]; Table 14, C. Albicans ATCC 10231): < 0.5 µg/mL
MIC (C. Albicans USP 2; Table 14, C. Albicans USP 2): < 0.5 µg/mL
MIC (Candida krusei ATCC 6258; Table 12, C. krusei ATCC 6258, 48 h, 35° C.): < 1 µg/mL
MIC (Candida krusei ATCC 6258; Table 14, C. krusei ATCC): 1 µg/mL (≈ 2.4 µM)
MIC ([2]; Table 12, C. parapsilosis USP 1933, 48 h, 35° C.): 1 µg/mL (≈ 2.4 µM)
MIC ([2]; Table 14, C. parapsilosis USP 1933 ATCC): < 0.5 µg/mL
MIC [3]: < 0.125 µg/mL
MIC [4]: 2 µg/mL (≈ 4.81 µM)
MIC [5]: 2 µg/mL (≈ 4.81 µM)
MIC (Candida albicans USP 1; Table 12, C. albicans USP 1, 48 h, 35° C.): < 0.125 µg/mL
MIC (Candida albicans USP 1; Table 14, C. Albicans USP 1): 1 µg/mL (≈ 2.4 µM)
MIC ([6]; Table 12, C. albicans OF M3-20, 48 h, 35° C.): < 0.125 µg/mL
MIC ([6]; Table 14, C. Albicans OF M3-20): < 0.5 µg/mL
MIC ([7]; Table 12, C. albicans OF M7-19, 48 h, 35° C.): < 0.125 µg/mL
MIC ([7]; Table 14, C. Albicans OF M7-19): < 0.5 µg/mL
MIC ([8]; Table 12, C. parapsilosis ATCC 22019, 48 h, 35° C.): 1 µg/mL (≈ 2.4 µM)
MIC ([8]; Table 14, C. parapsilosis ATCC 22019): 1 µg/mL (≈ 2.4 µM)
MIC (Candida glabrata ATCC): < 0.5 µg/mL
MIC [9]: < 0.5 µg/mL
MIC [10]: < 0.125 µg/mL
MIC [11]: < 2 µg/mL
MIC ([12]; Candida, Table 12, C. guilhermondii USP, 48 h, 35° C.): 2 µg/mL (≈ 4.81 µM)
MIC ([12]; Table 14, Candida guilhermondi USPATCC): 1 µg/mL (≈ 2.4 µM)
Compound: Clc1ccc(COC(Cn2ccnc2)c2ccc(Cl)cc2Cl)c(Cl)c1 (stereo not drawn) [Miconazol]
MFC ([1]; Table 14, C. Albicans ATCC 10231, read-out: CFM (Minimum Fungicidal Concentration)): 1 µg/mL (≈ 2.4 µM)
MFC (C. Albicans USP 2; Table 14, C. Albicans USP 2, read-out: CFM (Minimum Fungicidal Concentration)): < 0.5 µg/mL
MFC ([2]; Table 14, C. parapsilosis USP 1933 ATCC, read-out: CFM (Minimum Fungicidal Concentration)): < 0.5 µg/mL
MFC (Candida albicans USP 1; Table 14, C. Albicans USP 1, read-out: CFM (Minimum Fungicidal Concentration)): 4 µg/mL (≈ 9.61 µM)
MFC ([6]; Table 14, C. Albicans OF M3-20, read-out: CFM (Minimum Fungicidal Concentration)): < 0.5 µg/mL
MFC ([7]; Table 14, C. Albicans OF M7-19, read-out: CFM (Minimum Fungicidal Concentration)): < 0.5 µg/mL
MFC ([8]; Table 14, C. parapsilosis ATCC 22019, read-out: CFM (Minimum Fungicidal Concentration)): 1 µg/mL (≈ 2.4 µM)
MFC (Candida glabrata ATCC; read-out: CFM (Minimum Fungicidal Concentration)): 2 µg/mL (≈ 4.81 µM)
MFC ([12]; Table 14, Candida guilhermondi USPATCC, read-out: CFM (Minimum Fungicidal Concentration)): 1 µg/mL (≈ 2.4 µM)
